Measured values from patent publication US12077503B2, “Substituted cyclic amides and their use as herbicides” (FMC CORPORATION, priority 2015, dated 2024).

Legend:
Assay type in all cases: in vivo
[1] = test system: pigweed (Amaranthus retroflexus); assay: Test A postemergence; details: Amaranthus retroflexus, post-emergence, 240 h, read-out: Plant response rating, Pigweed
Outline: (§1)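 Preemergence soil spray on seeded pots or post-emergence spray on 1–2 leaf plants, in loam–sand blend. Greenhouse ~10 d. Visual rating 0–100 against untreated plants.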

[2] = test system: ryegrass, Italian (Italian ryegrass, Lolium multiflorum); assay: Test A postemergence; details: Lolium multiflorum, post-emergence, 240 h, read-out: Plant response rating, Ryegrass, Italian
Outline: as §1

[3] = test system: wheat (Triticum aestivum); assay: Test A postemergence; details: Triticum aestivum, post-emergence, 240 h, read-out: Plant response rating, Wheat
Outline: as §1

[4] = test system: Galium (catchweed bedstraw, Galium aparine); assay: Test A postemergence; details: Galium, post-emergence, 240 h, read-out: Plant response rating, Galium
Outline: as §1

[5] = test system: barnyardgrass (Echinochloa crus-galli); assay: Test A postemergence; details: Echinochloa crus-galli, post-emergence, 240 h, read-out: Plant response rating, Barnyardgrass
Outline: as §1

Kochia (Kochia scoparia) [6] = assay: Test A postemergence; details: Bassia scoparia, post-emergence, 240 h, read-out: Plant response rating, Kochia
Outline: as §1

[7] = test system: giant foxtail (Setaria faberii); assay: Test A postemergence; details: Setaria faberi, post-emergence, 240 h, read-out: Plant response rating, Foxtail, Giant
Outline: as §1

corn (Zea mays) = assay: Test A postemergence; details: Zea mays, post-emergence, 240 h
Outline: as §1

[8] = test system: ragweed (common ragweed, Ambrosia elatior); assay: Test A postemergence; details: Ambrosia artemisiifolia, post-emergence, 240 h, read-out: Plant response rating, Ragweed
Outline: as §1

[9] = test system: pigweed (Amaranthus retroflexus); assay: Test A preemergence; details: Amaranthus retroflexus, pre-emergence, 240 h, read-out: Plant response rating, Pigweed
[10] = test system: ryegrass, Italian (Italian ryegrass, Lolium multiflorum); assay: Test A preemergence; details: Lolium multiflorum, pre-emergence, 240 h, read-out: Plant response rating, Ryegrass, Italian
Outline: as §1

[11] = test system: barnyardgrass (Echinochloa crus-galli); assay: Test A preemergence; details: Echinochloa crus-galli, pre-emergence, 240 h, read-out: Plant response rating, Barnyardgrass
Outline: as §1

Kochia (Kochia scoparia) [12] = assay: Test A preemergence; details: Bassia scoparia, pre-emergence, 240 h, read-out: Plant response rating, Kochia
Outline: as §1

[13] = test system: giant foxtail (Setaria faberii); assay: Test A preemergence; details: Setaria faberi, pre-emergence, 240 h, read-out: Plant response rating, Foxtail, Giant
Outline: as §1

[14] = test system: ragweed (common ragweed, Ambrosia elatior); assay: Test A preemergence; details: Ambrosia artemisiifolia, pre-emergence, 240 h, read-out: Plant response rating, Ragweed
Outline: as §1

[15] = 125 g ai/ha, postemergence, visual rating after approx. 10 d, 0 to 100 scale (0 no effect, 100 complete control)
[16] = Postemergence, 500 g ai/ha, 0 to 100 scale where 0 is no effect and 100 is complete control
[17] = 125 g ai/ha, Preemergence, visual injury after approximately 10 d, 0 to 100 scale where 0 is no effect and 100 is complete control
[18] = 500 g ai/ha, preemergence, 0 to 100 scale, 0 = no effect, 100 = complete control

## CN1C[C@H](c2ccc(C(F)(F)F)cc2)[C@@H](C(=O)Nc2ccccc2F)C1=O [Compound 622, (3S,4S)—N-(2-fluorophenyl)-1-methyl-2-oxo-4-[4-(trifluoromethyl)phenyl]-3-pyrrolidinecarboxamide]
[1]; [15]
  pest or weed control at 125 g/ha: 40%
[1]; [16]
  pest or weed control at 500 g/ha: 50%
[2]; [15]
  pest or weed control at 125 g/ha: 30%
[2]; [16]
  pest or weed control at 500 g/ha: 50%
[3]; [15]
  plant injury at 125 g/ha: 30%
[3]; [16]
  plant injury at 500 g/ha: 70%
[4]; [15]
  pest or weed control at 125 g/ha: 60%
[4]; [16]
  pest or weed control at 500 g/ha: 70%
[5]; [15]
  pest or weed control at 125 g/ha: 90%
[5]; [16]
  pest or weed control at 500 g/ha: 90%
Kochia (Kochia scoparia) [6]; [15]
  pest or weed control at 125 g/ha: 40%
Kochia (Kochia scoparia) [6]; [16]
  pest or weed control at 500 g/ha: 60%
[7]; [15]
  pest or weed control at 125 g/ha: 80%
[7]; [16]
  pest or weed control at 500 g/ha: 90%
Corn (Zea mays); [15]
  Corn plant response rating (crop injury, 0 = no effect, 100 = complete kill) at 125 g/ha: 50%
Corn (Zea mays); [16]
  Corn plant response rating (crop injury, 0 = no effect, 100 = complete kill) at 500 g/ha: 70%
[8]; [15]
  pest or weed control at 125 g/ha: 0%
[8]; [16]
  pest or weed control at 500 g/ha: 40%
[9]; [17]
  pest or weed control at 125 g/ha: 80%
[9]; [18]
  pest or weed control at 500 g/ha: 80%
[10]; [17]
  pest or weed control at 125 g/ha: 40%
[10]; [18]
  pest or weed control at 500 g/ha: 40%
[11]; [17]
  pest or weed control at 125 g/ha: 90%
[11]; [18]
  pest or weed control at 500 g/ha: 90%
Kochia (Kochia scoparia) [12]; [17]
  pest or weed control at 125 g/ha: 80%
Kochia (Kochia scoparia) [12]; [18]
  pest or weed control at 500 g/ha: 80%
[13]; [17]
  pest or weed control at 125 g/ha: 90%
[13]; [18]
  pest or weed control at 500 g/ha: 90%
[14]; [17]
  pest or weed control at 125 g/ha: 60%
[14]; [18]
  pest or weed control at 500 g/ha: 60%
